Legend:
Male Wistar rats [1] = test: Acute changes in heart rate during reperfusion, rat myocardial ischemia reperfusion; format: in vivo; conditions: infusion of RRx-001, i.v. in DMSO; in sham animals or relative to animals with I/R; FIG. 1
Description: (§1) Animal experiments were performed in accordance with protocols approved. Male Wistar rats or subjects (about 8-9 weeks old) were purchased from Charles River (San Diego, California) and allowed about 1 week to acclimatize to the new environment prior to random allocation into four groups (n=8 per group). The groups included: a first group 106 (sham), a second group 108 (RRx-001), a third group 110 (RRx-001 I/R), and a fourth group 112 (I/R).
(§2) The first group 106 included sham subjects (e.g., no treatment). The subjects of the second group 108 were given about 5 mg/kg of RRx-001 prepared in dimethyl sulfoxide (DMSO) and administered to the subjects via intravenous administration. The subjects of the second group 108 were not subjected to ischemia. […]
(§3) Regarding the myocardial ischemia reperfusion, the subjects were anesthetized with isoflurane (5% induction and 2% maintenance in 30% oxygen) and placed on a thermal heating pad. […] The knot was removed, the chest was closed, and the hearts of the subjects were monitored for a time period of one hour during reperfusion. […]
FIG. 1 depicts a graph comparing acute changes in heart rate (HR) during reperfusion for various groups of Example 1, according to at least some embodiments disclosed herein. FIG. 1 includes an x-axis 102 associated with time (measured in minutes) and a y-axis 104 associated with HR (measured in beats per minute or “bpm”).

Male Wistar rats [2] = test: Hypotensive effects after RRx-001 treatment; format: in vivo, rat; conditions: treatment after reperfused MI
Description: as §1
as §2, with “ischemia. The subjects of the third group 110 were administered about 0.5 mg/kg of RRx-001 prepared in DMSO via intravenous administration during reperfusion after ischemia. The subjects of the fourth group 112 were untreated, but subjected to ischemia and reperfusion.” for “ischemia.”
as §3

With `O=C(CBr)N1CC([N+](=O)[O-])([N+](=O)[O-])C1` [RRx-001, 2-bromo-1-(3,3-dinitroazetidin-1-yl)ethan-1-one] the “acute changes in heart rate (HR) during reperfusion” value (Male Wistar rats [1]) was “did not result in any acute changes in HR” and the hypotensive effects (Male Wistar rats [2]) was “No hypotensive effects were observed”.
